Experimental data from patent publication US20230183193A1, “4-DIFLUOROMETHYL BENZOYL AMIDES WITH HERBICIDAL ACTION” (BAYER CROPSCIENCE AKTIENGESELLSCHAFT, priority 2017, published 2023).

Key:
Format in all cases: in vivo
[1] = tested on: Abutilon theophrasti; test: Pre-emergence herbicidal action, ABUTH; details: dosage 320 g/ha, scored visually after 3 weeks vs untreated controls
Text: (§1) 1. Pre-Emergence Herbicidal Action Against Harmful Plants Seeds of monocotyledonous and dicotyledonous weed plants and crop plants are laid out in sandy loam soil in wood-fiber pots and covered with soil. The compounds of the invention, formulated in the form of wettable powders (WP) or as emulsion concentrates (EC), are then applied to the surface of the covering soil in the form of an aqueous suspension or emulsion at a water application rate equating to […], with addition of 0.2% wetting agent. After the treatment, the pots are placed in a greenhouse and kept under good growth conditions for the trial plants. The damage to the test plants is scored visually after a test period of 3 weeks by comparison with untreated controls (herbicidal activity in percent (%): 100% activity=the plants have died, 0% activity=like control plants).
(§2) For comparison, the herbicidal activity of numerous compounds according to the invention was tested with the structurally closest compounds known from the documents WO 2011/035874, WO 2012/028579 and WO 2012/126932, by the pre- and post-emergence method.

[2] = tested on: Alopecurus myosuroides; test: Post-emergence herbicidal action, ALOMY; details: 80 g/ha, Table C
Experimental: (§3) Seeds of monocotyledonous and dicotyledonous weed and crop plants are laid out in sandy loam soil in wood-fiber pots, covered with soil and cultivated in a greenhouse under good growth conditions. 2 to 3 weeks after sowing, the test plants are treated at the one-leaf stage. The compounds of the invention, formulated in the form of wettable powders (WP) or as emulsion concentrates (EC), are then sprayed onto the green parts of the plants in the form of an aqueous suspension or emulsion at a water application rate equating to […], with addition of 0.2% wetting agent. After the test plants have been left to stand in the greenhouse under optimal growth conditions for about 3 weeks, the action of the preparations is assessed visually in comparison to untreated controls (herbicidal action in percent (%): 100% activity=the plants have died, 0% activity=like control plants). […] At the same time, inventive compounds leave Gramineae crops such as barley, wheat, rye, millet/sorghum, corn or rice virtually undamaged when applied post-emergence, even at high active compound dosages. In addition, some substances are also harmless to dicotyledonous crops such as soya, cotton, oilseed rape, sugar beet or potatoes. Some of the compounds according to the invention have high selectivity and are therefore suitable for controlling unwanted vegetation in agricultural crops by the post-emergence method. The data of Tables C and D below illustrate, in an exemplary manner, the […] herbicidal action of the compounds according to the invention, the herbicidal activity being stated in percent.
as §2

[3] = tested on: Stellaria media; test: Post-emergence herbicidal action, STEME; details: 80 g/ha, Table D
Experimental: as §3, §2

[4] = tested on: Matricaria inodora; test: Pre-emergence herbicidal action, MATIN; details: dosage 320 g/ha, scored visually after 3 weeks vs untreated controls
Text: as §1, §2

[5] = tested on: Amaranthus retroflexus; test: Post-emergence herbicidal action, AMARE; details: 80 g/ha, Table D
Experimental: as §3, §2

[6] = tested on: Alopecurus myosuroides; test: Pre-emergence herbicidal action, ALOMY; details: dosage 320 g/ha, scored visually after 3 weeks vs untreated controls
Text: as §1, §2

[7] = tested on: Viola tricolor; test: Post-emergence herbicidal action, VIOTR; details: 80 g/ha, Table D
Experimental: as §3, §2

[8] = tested on: Setaria viridis; test: Post-emergence herbicidal action, SETVI; details: 80 g/ha, Table C
Experimental: as §3, §2

[9] = tested on: Abutilon theophrasti; test: Post-emergence herbicidal action, ABUTH; details: 80 g/ha, Table D
Experimental: as §3, §2

[10] = tested on: Viola tricolor; test: Pre-emergence herbicidal action, VIOTR; details: dosage 320 g/ha, scored visually after 3 weeks vs untreated controls
Text: as §1, §2

[11] = tested on: ECHCG; test: Post-emergence herbicidal action, ECHCG; details: 80 g/ha, Table C
Experimental: as §3

[12] = tested on: Cyperus serotinus; test: Pre-emergence herbicidal action, CYPES; details: dosage 320 g/ha, scored visually after 3 weeks vs untreated controls
Text: as §1, §2

[13] = tested on: Avena fatua; test: Pre-emergence herbicidal action, AVEFA; details: dosage 320 g/ha, scored visually after 3 weeks vs untreated controls
Text: as §1, §2

[14] = tested on: Setaria viridis; test: Pre-emergence herbicidal action, SETVI; details: dosage 320 g/ha, scored visually after 3 weeks vs untreated controls
Text: as §1, §2

[15] = tested on: Stellaria media; test: Pre-emergence herbicidal action, STEME; details: dosage 320 g/ha, scored visually after 3 weeks vs untreated controls
Text: as §1, §2

[16] = tested on: Avena fatua; test: Post-emergence herbicidal action, AVEFA; details: 80 g/ha, Table C
Experimental: as §3, §2

[17] = tested on: Amaranthus retroflexus; test: Pre-emergence herbicidal action, AMARE; details: dosage 320 g/ha, scored visually after 3 weeks vs untreated controls
Text: as §1, §2

[18] = tested on: Pharbitis purpureum; test: Post-emergence herbicidal action, PHBPU; details: 80 g/ha, Table D
Experimental: as §3, §2

| Structure (SMILES) | herbicidal activity ABUTH [1] [%] | herbicidal activity ALOMY [2] [%] | Herbicidal activity STEME [3] [%] | herbicidal activity MATIN [4] [%] | herbicidal activity AMARE [5] [%] | herbicidal activity ALOMY [6] [%] | herbicidal activity VIOTR [7] [%] | herbicidal activity SETVI [8] [%] | herbicidal activity ABUTH [9] [%] | herbicidal activity VIOTR [10] [%] | Herbicidal activity ECHCG [11] [%] | herbicidal activity CYPES [12] [%] | herbicidal activity AVEFA [13] [%] | herbicidal activity SETVI [14] [%] | Herbicidal activity STEME [15] [%] | herbicidal activity AVEFA [16] [%] | herbicidal activity AMARE [17] [%] | Herbicidal activity PHBPU [18] [%] |
| --- | --- | --- | --- | --- | --- | --- | --- | --- | --- | --- | --- | --- | --- | --- | --- | --- | --- | --- |
| CCSc1c(C(F)F)ccc(C(=O)Nc2nnnn2C)c1CC [Example 1-16] | 100 | 90 | 100 | 100 | 100 | 100 | 100 | 90 | 100 | 100 | 90 | 100 | 100 | 100 | 100 | 90 | 100 | – |
| CCS(=O)(=O)c1c(C(F)F)ccc(C(=O)Nc2nnnn2C)c1I [Example 1-78] | 100 | 90 | 100 | 100 | 100 | 100 | 90 | 100 | 80 | 100 | 100 | 100 | 100 | 100 | – | 80 | 100 | 100 |
| CCn1nnnc1NC(=O)c1ccc(C(F)F)c(SC)c1C [Example 2-1] | 100 | 90 | 100 | 100 | 100 | 90 | 100 | 90 | 90 | 100 | 90 | – | 100 | 100 | – | 100 | 100 | 100 |
| CCn1nnnc1NC(=O)c1ccc(C(F)F)c([S+](C)[O-])c1C (stereo not drawn) [Example 2-2] | 100 | 90 | 100 | 100 | 80 | 100 | 100 | 100 | 90 | 100 | 90 | 90 | 100 | 100 | – | 90 | 100 | 90 |
| CCCn1nnnc1NC(=O)c1ccc(C(F)F)c(SC)c1C [Example 3-1] | 100 | 90 | 100 | 100 | 100 | 100 | 100 | 100 | 100 | 100 | 100 | – | 100 | 100 | 100 | 100 | 100 | 90 |
